Measured values: patent US6800630B2, “Pyrimidine derivatives having antitumor effect” (Shionogi & Co., Ltd., priority 2000, dated 2004)
Converted amounts (≈) assume the structure as drawn.

Experiments:
Format in all cases: cell-based
[1] = test system: signal derived from Ras oncogene products (DT-R cells, pRRE3-luc transfected v-ki-ras-transformed NIH373 cells); experiment: Inhibitory effect against cellular signaling derived from Ras oncogene products: RRE-luciferase reporter, Minimal Active Concentration (MAC) at which DT-C and DT-R activities dissociate; conditions: minimal concentration at which luciferase activities of DT-C and DT-R cells dissociated
Source text: (§1) Test Example 1 Inhibitory effect against cellular signaling derived from Ras oncogene products
(§2) Based on the reporter plasmid (pGV-P (Toyo Ink, Japan)), in which luciferase gene was ligated to SV40-derived minimal promoter, we constructed a plasmid designated pRRE3-luc by inserting 3 copies of chemically synthesized oligonucleotides (Sequence: CAGGATATGACTCT, derived from mouse NVL-3 (M. A. Reddy et al.(1992)Mol. Endocrinol., 6, 1051)) into upstream of the promoter. v-ki-ras-transformed NIH373 cells (DT cells, provided by Dr. Makoto Noda (Kyoto Univ., School of medicine)) were transfected with this plasmid by liposome-mediated transfection and transfected cell lines stably incorporated and maintained each plasmid were obtained. We named pGV-P and pRRE3-transfected cell line as DT-C and DT-R, respectively and used in the assay described below.
(§3) i) All the cell lines were cultured in Dulbecco's Modified Essential Medium (DMEM: 10% Fetal Calf Serum(FCS: Hyclone, USA)) including […] kanamycin (Meiji Seika, Japan) in humidified incubator under condition of 5% CO2 at 37° C.
(§4) ii) DT-C and DT-R cells were seeded at 2500 cells/well into flat-bottom 96 well multiplate (Sumitomo bakelite) and incubated for 24 hours.
(§5) iii) Test compounds were prepared as 1 mg/ml DMSO solution.
(§6) iv) The solution of test compounds were added to the culture. Tested compounds are used at the concentration from […] to 0.51 ng/ml with 3-fold dilution.
(§7) v) After 24 hours, the culture supernatant was completely aspirated and 20 μl of cell-lysing solution (PGC-50 (Toyo Ink, Japan)) was added before cells were dried up. In order to lyse the cells completely, multiwell plates were left at room temperature for 10 to 30 min. The plates were wrapped up and stored at −20° C. till the day of measurement.
(§8) i) Melt the samples by putting 96 well multiplate at 37° C. and add 90 μl/well 25 mM Tris (pH 7.5).
(§9) ii) Transfer 50 μl of the sample (110 μl) to the 96 well microplate (Microlite 1 (Dynatech)) for measurement.
(§10) iii) Measure the samples by the luminometer, LUMINOUS CT9000D (Dia-Yatron, Japan). We used Pickagene luminescence kit PGL2000 or LT2.0 (Toyo Ink, Japan) as enzyme substrates for luminescence measurement (50 μl/well).
(§11) i) The luciferase activity of DT-C cells and DT-R cells were plotted in the graph where the relative activity and the compound concentration were expressed as Y-axis and X-axis, respectively. We judged by the degree of dissociation between the activities of DT-C cells and DT-R cells as an index.
ii) Concretely, efficacy of the compound was expressed by two values described below.
a) Among the points of concentration tested, the minimal concentration (Minimal Active Concentration: MAC), at which the activities of DT-C cells and DT-R cells dissociated, was shown as an index of efficacy of the compound.

[2] = test system: DT-C cells (pGV-P transfected v-ki-ras-transformed NIH373 cells); experiment: Luciferase activity of DT-C control cells (IC50-C), index of non-specific transcription-inhibitory effect or cytotoxicity; conditions: tested concentration nearest to 50% inhibition in DT-C cells
Source text: as §1, §2, §3, §4, §5, §6, §7, §8, §9, §10, §11
b) Among the points of concentration tested, the concentration which is the nearest to 50% inhibition concentration at DT-C cells (IC50-C), was shown as an index of non-specific transcription-inhibitory effect or of cytotoxicity. In case of positive compounds, 50% inhibition concentration in DT-C cells which was higher than the active concentration was expressed as IC50-C.

[3] = test system: H460; experiment: In vitro cell growth inhibition test, MTT assay; conditions: MTT assay 4 days after compound addition
Source text: [The source words this procedure for another cell line and reports this cell line under the same test.] (§12) Test Example 2 In vitro cell growth inhibition test Cells and MTT assay
(§13) Human squamous lung cancer […], human squamous lung cancer Ma44, human lung adenocarcinoma A549, human colon cancer HT29 and human pancreas cancer PANC-1 were used.

[4] = test system: human colon cancer HT29; experiment: In vitro cell growth inhibition test, MTT assay; conditions: MTT assay 4 days after compound addition
Source text: as §12, §13

[5] = test system: human lung adenocarcinoma A549; experiment: In vitro cell growth inhibition test, MTT assay; conditions: MTT assay 4 days after compound addition
Source text: as §12, §13

[6] = test system: human pancreas cancer PANC-1; experiment: In vitro cell growth inhibition test, MTT assay; conditions: MTT assay 4 days after compound addition
Source text: as §12, §13

[7] = test system: human squamous lung cancer Ma44; experiment: In vitro cell growth inhibition test, MTT assay; conditions: MTT assay 4 days after compound addition
Source text: as §12, §13

[8] = test system: human squamous lung cancer RERF-RC-AI; experiment: In vitro cell growth inhibition test, MTT assay; conditions: MTT assay 4 days after compound addition
Source text: as §12, §13

SMILES | IC50 H460 [3] [µg/mL] | IC50 HT-29 [4] [µg/mL] | IC50 A549 [5] [µg/mL] | IC50 PANC-1 [6] [µg/mL] | IC50 Ma44 [7] [µg/mL] | IC50 RERF-LC-AI [8] [µg/mL] | MAC (Minimal Active Concentration) [1] [µg/mL] | IC50 (IC50-C) [2] [µg/mL]
CCNC(=Nc1nc(C)ncc1CSc1nnc(-c2ccc([N+](=O)[O-])cc2)o1)SCC [Compound A-6] | 0.0256 (≈ 0.0557 µM) | 0.0244 (≈ 0.0531 µM) | 0.0256 (≈ 0.0557 µM) | 0.0148 (≈ 0.0322 µM) | 0.0182 (≈ 0.0396 µM) | 0.015 (≈ 0.0326 µM) | 0.0412 | 
CCNC(=Nc1nc(C)ncc1CSc1nnc(-c2ccc(N)cc2)o1)SC [Compound A-11] |  | 0.0067 (≈ 0.0161 µM) | 0.014 (≈ 0.0337 µM) | 0.0064 (≈ 0.0154 µM) | 0.077 (≈ 0.185 µM) |  | 0.0412 | >10
CCNC(=Nc1nc(C)ncc1C(C)Sc1nnc(-c2ccc([N+](=O)[O-])cc2)o1)NCC (racemic) [Compound A-23] |  |  |  |  |  |  | 3.33 | >10
CCCNC(=Nc1nc(C)ncc1CSc1nnc(-c2ccc([N+](=O)[O-])cc2)o1)SC [Compound A-4] |  | 0.023 (≈ 0.05 µM) | 0.038 (≈ 0.0827 µM) | 0.026 (≈ 0.0566 µM) | 0.051 (≈ 0.111 µM) | 0.03 (≈ 0.0653 µM) | 0.37 | >10
CCCSC(=Nc1nc(C)ncc1CSc1nnc(-c2ccc([N+](=O)[O-])cc2)o1)NC [Compound A-7] | 0.0038 (≈ 0.00827 µM) | 0.0036 (≈ 0.00783 µM) | 0.0021 (≈ 0.00457 µM) | 0.0006 (≈ 0.00131 µM) | 0.0016 (≈ 0.00348 µM) | 0.0013 (≈ 0.00283 µM) | 0.123 | 3.33 (≈ 7.25 µM)
CCSC(=Nc1nc(C)ncc1CSc1nnc(-c2ccc([N+](=O)[O-])cc2)o1)NC [Compound A-5] | 0.089 (≈ 0.2 µM) | 0.0484 (≈ 0.109 µM) | 0.07 (≈ 0.157 µM) | 0.0665 (≈ 0.149 µM) | 0.0446 (≈ 0.1 µM) | 0.033 (≈ 0.0741 µM) | 0.123 | 
CNC(=Nc1nc(C)ncc1CSc1nnc(-c2ccc([N+](=O)[O-])cc2)o1)SC [Compound A-1] |  | 0.045 (≈ 0.104 µM) | 0.0009 (≈ 0.00209 µM) | 0.046 (≈ 0.107 µM) | 0.12 (≈ 0.278 µM) |  | 1.11 | >10
CNC(=Nc1nc(C)ncc1CSc1nnc(-c2ccc(N)cc2)o1)SC [Compound A-10] |  |  |  |  | 0.08 (≈ 0.199 µM) |  | 1.11 | >10
CCNC(=Nc1nc(C)ncc1CSc1nnc(-c2ccc([N+](=O)[O-])cc2)o1)SC [Compound A-3] |  | 0.052 (≈ 0.117 µM) | 0.063 (≈ 0.141 µM) | 0.051 (≈ 0.114 µM) | 0.056 (≈ 0.126 µM) | 0.046 (≈ 0.103 µM) | 0.37 | >10

More lines, main results first:

IC50 H460 [3] [µg/mL] | IC50 HT-29 [4] [µg/mL] | IC50 A549 [5] [µg/mL] | IC50 PANC-1 [6] [µg/mL] | IC50 Ma44 [7] [µg/mL] | IC50 RERF-LC-AI [8] [µg/mL] | SMILES | MAC (Minimal Active Concentration) [1] [µg/mL] | IC50 (IC50-C) [2] [µg/mL]
0.0115 (≈ 0.0268 µM) | 0.0063 (≈ 0.0147 µM) | 0.008 (≈ 0.0186 µM) | 0.0091 (≈ 0.0212 µM) | 0.0095 (≈ 0.0221 µM) | 0.0057 (≈ 0.0133 µM) | CCCNC(=Nc1nc(C)ncc1CSc1nnc(-c2ccc(N)cc2)o1)SC [Compound A-12] | 0.0137 | >10
0.015 (≈ 0.035 µM) | 0.015 (≈ 0.035 µM) | 0.0174 (≈ 0.0406 µM) | 0.0107 (≈ 0.025 µM) | 0.0241 (≈ 0.0562 µM) | 0.0132 (≈ 0.0308 µM) | CCCNC(=Nc1nc(C)ncc1CSc1nnc(-c2ccc(C)cc2)o1)SC [Compound A-17] | 0.0412 | >10
 | 0.0089 (≈ 0.0214 µM) | 0.015 (≈ 0.0361 µM) | 0.0077 (≈ 0.0185 µM) | 0.03 (≈ 0.0722 µM) |  | CCSC(=Nc1nc(C)ncc1CSc1nnc(-c2ccc(N)cc2)o1)NC [Compound A-13] | 0.0137 | 
 | 0.0066 (≈ 0.0149 µM) | 0.023 (≈ 0.0519 µM) | 0.0086 (≈ 0.0194 µM) | 0.0091 (≈ 0.0205 µM) | 0.0093 (≈ 0.021 µM) | CCNC(=Nc1nc(C)ncc1CSc1nnc(-c2ccc([N+](=O)[O-])cc2)o1)OCC [Compound A-33] | 0.0412 | >10
 | 0.0046 (≈ 0.0104 µM) | 0.021 (≈ 0.0474 µM) | 0.0075 (≈ 0.0169 µM) | 0.0091 (≈ 0.0205 µM) | 0.013 (≈ 0.0293 µM) | CNC(=Nc1nc(C)ncc1CSc1nnc(-c2ccc([N+](=O)[O-])cc2)o1)OC(C)C [Compound A-34] | 0.0137 | >10
0.0275 (≈ 0.0583 µM) | 0.0004 (≈ 0.000848 µM) | 0.0514 (≈ 0.109 µM) | 0.0004 (≈ 0.000848 µM) | 0.0004 (≈ 0.000848 µM) | 0.0004 (≈ 0.000848 µM) | CCCNC(=Nc1nc(C)ncc1CSc1nnc(-c2ccc([N+](=O)[O-])cc2)o1)NN(C)C [Compound A-18] | 0.00457 | >10
 | 0.0033 (≈ 0.00721 µM) | 0.011 (≈ 0.024 µM) | 0.0054 (≈ 0.0118 µM) | 0.0069 (≈ 0.0151 µM) | 0.0067 (≈ 0.0146 µM) | CCNC(=Nc1nc(C)ncc1CSc1nnc(-c2ccc([N+](=O)[O-])cc2)o1)OC(C)C [Compound A-35] | 0.0412 | >10
 |  |  |  | 0.042 (≈ 0.0914 µM) |  | CCNC(=Nc1nc(C)ncc1C(C)Sc1nnc(-c2ccc([N+](=O)[O-])cc2)o1)SC (racemic) [Compound A-22] | 1.11 | >10
 | 0.031 (≈ 0.0722 µM) | 0.064 (≈ 0.149 µM) | 0.034 (≈ 0.0792 µM) | 0.042 (≈ 0.0978 µM) | 0.031 (≈ 0.0722 µM) | CCNC(=Nc1nc(C)ncc1CSc1nnc(-c2ccc([N+](=O)[O-])cc2)o1)OC [Compound A-32] | 0.123 | >10
 | 0.002 (≈ 0.00456 µM) | 0.0044 (≈ 0.01 µM) | 0.002 (≈ 0.00456 µM) | 0.0034 (≈ 0.00775 µM) |  | C#CCNC(=Nc1nc(C)ncc1CSc1nnc(-c2ccc([N+](=O)[O-])cc2)o1)NC [Compound C-2, reference compound] | 0.0137 | >10
 | 0.0066 (≈ 0.0137 µM) | 0.016 (≈ 0.0332 µM) | 0.0064 (≈ 0.0133 µM) | 0.011 (≈ 0.0228 µM) |  | CNC(=Nc1nc(C)ncc1CSc1nnc(-c2ccc([N+](=O)[O-])cc2)o1)NCC(F)(F)F [Compound C-1, reference compound] | 0.0412 | 
 | 0.011 (≈ 0.0256 µM) | 0.012 (≈ 0.0279 µM) | 0.0098 (≈ 0.0228 µM) | 0.032 (≈ 0.0745 µM) | 0.012 (≈ 0.0279 µM) | CCNC(=Nc1nc(C)ncc1CSc1nnc(-c2ccc(N)cc2)o1)SCC [Compound A-14] | 0.0412 | >10
